System: Spontaneously hypertensive rats (SHR/Izm)
Experiment: Systolic blood pressure in spontaneously hypertensive rats after single dose of synthesized peptides (2) to (6) (tail-cuff method)
Assay type: in vivo, rat
Settings: single dose 50 mg/kg body weight, *p < 0.05, **p < 0.01
Excerpt: The following peptides were synthesized according to known methods, based on the amino acid sequences of peptides isolated from the globin proteolysate prepared in Experimental Example 3 and identified. The peptide (WGKV; SEQ ID NO:3) (3) corresponds to a peptide produced by one amino acid deletion at the C terminus from the amino acid sequence of the peptide (WGKVN; SEQ ID NO:2) (2), and the peptide (WGK; SEQ ID NO:4) (4) corresponds to a peptide produced by deleting a further amino acid at the C terminus.
Spontaneously hypertensive rats (SHR/Izm, male, 12-week-old, body weight: 285 g, Japan SLC, Inc.) were administered in a single dose with the peptides synthesized above (peptides (2) to (6)) in an amount of 50 mg/kg body weight. Two, four, and six hours after the start of administration, the systolic blood pressures of the rats were measured using a non-heating non-invasive blood pressure monitor (“MK-2000”, manufactured by Muromachi Kikai Co., Ltd.) by the tail-cuff method without using anesthesia. Spontaneously hypertensive rats as a control group were orally administered with a solvent (distilled water), and the systolic blood pressures of the rats were measured in a similar manner.

Q: “Ala-Ala-Trp-Gly-Lys (AAWGK; Peptide found in globin hydrolysate)” was tested. Which “Reduction in blood pressure, 2 hours after administration” value (“Reduction in blood pressure, 2 hours” below) did it give?
A: Its value is −7 ± 4 mmHg.

Q: What about the “Reduction in blood pressure, 4 hours after administration” value (from here on “Reduction in blood pressure, 4 hours”) of the same substance?
A: Its value is −8 ± 12 mmHg.

Q: And the “Reduction in blood pressure, 6 hours after administration” value (shortened to “Reduction in blood pressure, 6 hours”)?
A: The value was −4 ± 8 mmHg.

Q: “Phe-Glu-Ser (FES; Peptide found in globin hydrolysate)” was tested. Which “Reduction in blood pressure, 2 hours” value did it give?
A: Its value is −15 ± 4* mmHg.

Q: And the “Reduction in blood pressure, 4 hours” value?
A: Its value is −13 ± 8 mmHg.

Q: What about the “Reduction in blood pressure, 6 hours” value of the same substance?
A: The value was −15 ± 6 mmHg.

Q: How did the “Reduction in blood pressure, 2 hours” value turn out when “Trp-Gly-Lys (WGK; Peptide found in globin hydrolysate)” was run?
A: Its value is −3 ± 7 mmHg.

Q: What about the “Reduction in blood pressure, 4 hours” value of the same substance?
A: The value was −23 ± 8** mmHg.

Q: What about the “Reduction in blood pressure, 6 hours” value of the same substance?
A: Its value is −15 ± 8 mmHg.

Q: “Trp-Gly-Lys-Val (WGKV; Peptide found in globin hydrolysate)” was tested. Which “Reduction in blood pressure, 2 hours” value did it give?
A: Its value is −9 ± 3 mmHg.

Q: And the “Reduction in blood pressure, 4 hours” value?
A: The value was −4 ± 4 mmHg.

Q: What about the “Reduction in blood pressure, 6 hours” value of the same substance?
A: The value was −3 ± 3 mmHg.

Q: Which “Reduction in blood pressure, 2 hours” value does the source give for “Trp-Gly-Lys-Val-Asn (WGKVN; Peptide found in globin hydrolysate)” here?
A: Its value is −16 ± 4** mmHg.

Q: What about the “Reduction in blood pressure, 4 hours” value of the same substance?
A: The value was −12 ± 4* mmHg.

Q: What about the “Reduction in blood pressure, 6 hours” value of the same substance?
A: The value was −14 ± 3** mmHg.

Source: patent publication US8394769B2, “Anti-hypertensive agent” (MG Pharma Inc., priority 2007, dated 2013)
